Experimental data published in paper PMC4685943 (ACS Chemical Biology, 2015).

What was measured:
DDR2 = target: T1, DDR2 (Homo sapiens, UniProt Q16832); assay: DDR2 phosphorylation, IP/Western blot in 293T cells expressing wild type DDR2; assay type: cell-based; settings: 293T cells expressing wild type DDR2, IP anti-DDR2 / blot 4G10
T1 sequence (Q16832 22-855): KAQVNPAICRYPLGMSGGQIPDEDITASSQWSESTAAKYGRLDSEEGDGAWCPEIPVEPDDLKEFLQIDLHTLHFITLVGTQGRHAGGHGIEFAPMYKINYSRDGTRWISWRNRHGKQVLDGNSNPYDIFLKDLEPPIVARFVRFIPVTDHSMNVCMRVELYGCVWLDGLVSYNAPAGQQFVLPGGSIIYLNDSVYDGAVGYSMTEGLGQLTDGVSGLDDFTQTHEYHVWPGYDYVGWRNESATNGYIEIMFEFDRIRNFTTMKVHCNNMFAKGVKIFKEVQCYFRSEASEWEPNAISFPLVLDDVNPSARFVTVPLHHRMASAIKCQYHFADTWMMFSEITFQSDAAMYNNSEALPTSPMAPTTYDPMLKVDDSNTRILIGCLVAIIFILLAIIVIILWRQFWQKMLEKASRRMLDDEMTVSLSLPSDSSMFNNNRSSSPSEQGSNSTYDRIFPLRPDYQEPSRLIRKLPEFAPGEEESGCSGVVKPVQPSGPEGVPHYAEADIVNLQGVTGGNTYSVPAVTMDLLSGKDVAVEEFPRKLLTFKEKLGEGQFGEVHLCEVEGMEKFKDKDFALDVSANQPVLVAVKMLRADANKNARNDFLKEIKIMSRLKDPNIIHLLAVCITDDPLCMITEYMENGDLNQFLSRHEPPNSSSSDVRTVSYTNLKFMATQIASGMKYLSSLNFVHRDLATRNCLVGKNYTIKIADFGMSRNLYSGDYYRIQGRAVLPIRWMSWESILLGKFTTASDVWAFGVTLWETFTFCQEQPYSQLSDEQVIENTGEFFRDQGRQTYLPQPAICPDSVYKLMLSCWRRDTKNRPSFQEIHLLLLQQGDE

NCI-H2286 and HCC-366 = assay: Cell proliferation assays in DDR2 mutated cell lines; assay type: cell-based; settings: NCI-H2286 and HCC-366, 5 days, single agent

Structure (SMILES) | effect on p-DDR2 (DDR2) | antiproliferative potency in DDR2 mutated cell lines (NCI-H2286 and HCC-366)
Cc1nc(Nc2ncc(C(=O)Nc3c(C)cccc3Cl)s2)cc(N2CCN(CCO)CC2)n1 [Dasatinib] | potent inhibition | 
CN1CCN(CCOc2cc(OC3CCOCC3)c3c(Nc4c(Cl)ccc5c4OCO5)ncnc3c2)CC1 [Saracatinib] |  | greater inhibition of cell proliferation as compared to compound 1
